Measured values from PubChem BioAssay AID248 (DTP/NCI, 2004).
Where “and” joins values, the source holds several entries; their conditions need not be identical. Equal values may be shown once. Toxic doses and inconclusive results are not listed. No stated cut-off is given here; in the data, active means T/C of 150% or more; inactive means T/C below 125%.

Test system: L1210 leukemia ip in BDF1 mice, survival T/C
Assay: NCI In Vivo Anticancer Drug Screen. Data for tumor model L1210 Leukemia (intraperitoneal) in B6D2F1 (BDF1) mice
Details: endpoint: mean survival time, higher = longer survival
How it was run: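 Mice bearing the transplanted tumor received compound or vehicle. Survival of the treated group was divided by that of the vehicle-treated control group to give the ratio.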

[1] = dose: 100.0 mg/kg/injection, schedule: Q04DX002 (ip), vehicle: Klucel (hydroxypropylcellulose) (HPC)
[2] = dose: 400.0 mg/kg/injection, schedule: Q01DX009 (ip), vehicle: Klucel (hydroxypropylcellulose) (HPC)
[3] = dose: 400.0 mg/kg/injection, schedule: Q04DX003 (ip), vehicle: Klucel (hydroxypropylcellulose) (HPC)
[4] = dose: 25.0 mg/kg/injection, schedule: Q04DX002 (ip), vehicle: Klucel (hydroxypropylcellulose) (HPC)
[5] = dose: 50.0 mg/kg/injection, schedule: Q04DX002 (ip), vehicle: Klucel (hydroxypropylcellulose) (HPC)
[6] = dose: 100.0 mg/kg/injection, schedule: Q01DX001 (ip), vehicle: saline
[7] = dose: 200.0 mg/kg/injection, schedule: Q01DX001 (ip), vehicle: saline
[8] = dose: 400.0 mg/kg/injection, schedule: Q01DX001 (ip), vehicle: saline

Measured: T/C

O=S(=O)(Cc1ccccc1)C(Br)c1ccccc1 (configuration not stated)
inactive: dose: 100.0 mg/kg/injection, schedule: Q01DX001 (ip), vehicle: other 101 % of control | dose: 100.0 mg/kg/injection, schedule: Q04DX003 (ip), vehicle: saline 108 % of control | dose: 200.0 mg/kg/injection, schedule: Q01DX001 (ip), vehicle: other 96 % of control | dose: 200.0 mg/kg/injection, schedule: Q04DX003 (ip), vehicle: saline 97 % of control | dose: 400.0 mg/kg/injection, schedule: Q01DX001 (ip), vehicle: other 98 % of control | dose: 400.0 mg/kg/injection, schedule: Q04DX003 (ip), vehicle: saline 87 % of control

N#C/C(=C\C=C\c1ccccc1)c1cccc(Cl)c1
inactive: dose: 87.5 mg/kg/injection, schedule: Q01DX009 (ip), vehicle: Klucel (hydroxypropylcellulose) (HPC) 89 % of control | dose: 175.0 mg/kg/injection, schedule: Q01DX009 (ip), vehicle: Klucel (hydroxypropylcellulose) (HPC) 92 % of control | dose: 350.0 mg/kg/injection, schedule: Q01DX009 (ip), vehicle: Klucel (hydroxypropylcellulose) (HPC) 101 % of control

COc1ccc(OC)c(NC(=O)Nc2nccs2)c1
inactive: dose: 100.0 mg/kg/injection, schedule: Q01DX001 (ip), vehicle: Klucel (hydroxypropylcellulose) (HPC) 95 % of control | dose: 100.0 mg/kg/injection, schedule: Q01DX009 (ip), vehicle: Klucel (hydroxypropylcellulose) (HPC) 97 % of control | [1] 97 % of control and 98 % of control | dose: 100.0 mg/kg/injection, schedule: Q04DX003 (ip), vehicle: Klucel (hydroxypropylcellulose) (HPC) 96 % of control and 122 % of control | dose: 200.0 mg/kg/injection, schedule: Q01DX001 (ip), vehicle: Klucel (hydroxypropylcellulose) (HPC) 90 % of control | dose: 200.0 mg/kg/injection, schedule: Q01DX009 (ip), vehicle: Klucel (hydroxypropylcellulose) (HPC) 88 % of control | dose: 200.0 mg/kg/injection, schedule: Q04DX002 (ip), vehicle: Klucel (hydroxypropylcellulose) (HPC) 96 % of control and 90 % of control | dose: 200.0 mg/kg/injection, schedule: Q04DX003 (ip), vehicle: Klucel (hydroxypropylcellulose) (HPC) 100 % of control | dose: 400.0 mg/kg/injection, schedule: Q01DX001 (ip), vehicle: Klucel (hydroxypropylcellulose) (HPC) 95 % of control | [2] 91 % of control | dose: 400.0 mg/kg/injection, schedule: Q04DX002 (ip), vehicle: Klucel (hydroxypropylcellulose) (HPC) 96 % of control and 101 % of control | [3] 102 % of control and 116 % of control

COc1ccccc1C1CCCCCC1O (configuration not stated)
inactive: dose: 100.0 mg/kg/injection, schedule: Q01DX009 (ip), vehicle: saline 98 % of control | dose: 200.0 mg/kg/injection, schedule: Q01DX009 (ip), vehicle: saline 98 % of control | dose: 400.0 mg/kg/injection, schedule: Q01DX009 (ip), vehicle: saline 98 % of control

CCOC(=O)c1ccc(NC(=O)Nc2cc(OC)c(Cl)cc2OC)cc1
inactive: dose: 100.0 mg/kg/injection, schedule: Q01DX001 (ip), vehicle: saline with Tween-80 93 % of control | dose: 100.0 mg/kg/injection, schedule: Q04DX002 (ip), vehicle: saline with Tween-80 97 % of control | dose: 200.0 mg/kg/injection, schedule: Q01DX001 (ip), vehicle: saline with Tween-80 101 % of control | dose: 200.0 mg/kg/injection, schedule: Q04DX002 (ip), vehicle: saline with Tween-80 100 % of control | dose: 400.0 mg/kg/injection, schedule: Q01DX001 (ip), vehicle: saline with Tween-80 88 % of control | dose: 400.0 mg/kg/injection, schedule: Q04DX002 (ip), vehicle: saline with Tween-80 97 % of control

O=C(CC(=O)C(F)(F)F)c1ccccc1.O=C(CC(=O)C(F)(F)F)c1ccccc1.[Cu]
inactive: dose: 6.25 mg/kg/injection, schedule: Q01DX009 (ip), vehicle: saline with Tween-80 95 % of control | dose: 6.25 mg/kg/injection, schedule: Q04DX003 (ip), vehicle: saline with Tween-80 91 % of control | dose: 12.5 mg/kg/injection, schedule: Q01DX009 (ip), vehicle: saline with Tween-80 95 % of control | dose: 12.5 mg/kg/injection, schedule: Q04DX003 (ip), vehicle: saline with Tween-80 92 % of control | dose: 25.0 mg/kg/injection, schedule: Q01DX009 (ip), vehicle: saline with Tween-80 92 % of control | dose: 25.0 mg/kg/injection, schedule: Q04DX003 (ip), vehicle: saline with Tween-80 91 % of control

O=C(/C=C/c1ccccc1)OCc1ccccc1CN1C=CON1
inactive: [4] 115 % of control | [5] 105 % of control | [1] 105 % of control

CCSCCOP(=O)(N(C)C)N(C)C
inactive: [4] 96 % of control | [5] 96 % of control | [1] 93 % of control and 98 % of control

[O-][N+](=C(c1ccccc1)c1ccccc1)c1ccccc1
inactive: dose: 100.0 mg/kg/injection, schedule: Q04DX003 (ip), vehicle: saline with Tween-80 101 % of control | dose: 200.0 mg/kg/injection, schedule: Q04DX003 (ip), vehicle: saline with Tween-80 93 % of control | dose: 400.0 mg/kg/injection, schedule: Q04DX003 (ip), vehicle: saline with Tween-80 90 % of control

O=c1[nH]cc[nH]1
inactive: [6] 100 % of control | dose: 178.0 mg/kg/injection, schedule: Q01DX009 (ip), vehicle: saline 109 % of control | [7] 105 % of control | dose: 267.0 mg/kg/injection, schedule: Q01DX009 (ip), vehicle: Klucel (hydroxypropylcellulose) (HPC) 106 % of control | dose: 267.0 mg/kg/injection, schedule: Q01DX009 (ip), vehicle: saline 119 % of control | dose: 267.0 mg/kg/injection, schedule: Q04DX003 (ip), vehicle: Klucel (hydroxypropylcellulose) (HPC) 105 % of control | [8] 109 % of control | [2] 117 % of control | [3] 104 % of control | dose: 600.0 mg/kg/injection, schedule: Q04DX003 (ip), vehicle: Klucel (hydroxypropylcellulose) (HPC) 109 % of control

Cc1ccc(C(=O)C=Nc2ccccc2C(=O)O)cc1
inactive: dose: 75.0 mg/kg/injection, schedule: Q04DX003 (ip), vehicle: Klucel (hydroxypropylcellulose) (HPC) 94 % of control | dose: 150.0 mg/kg/injection, schedule: Q04DX003 (ip), vehicle: Klucel (hydroxypropylcellulose) (HPC) 95 % of control | dose: 300.0 mg/kg/injection, schedule: Q04DX003 (ip), vehicle: Klucel (hydroxypropylcellulose) (HPC) 103 % of control

COC(=O)/C=C(\C)Nc1ccc([N+](=O)[O-])cc1
inactive: [6] 97 % of control | [7] 93 % of control | [8] 92 % of control

CCOc1cc(/C=N\Nc2nncn2N)c(C)cc1N(CCCl)CCCl
inactive: dose: 1.3 mg/kg/injection, schedule: Q01DX015 (ip), vehicle: carboxymethylcellulose (CMC) 107 % of control | dose: 1.5 mg/kg/injection, schedule: Q01DX015 (ip), vehicle: carboxymethylcellulose (CMC) 120 % of control | dose: 2.6 mg/kg/injection, schedule: Q01DX015 (ip), vehicle: carboxymethylcellulose (CMC) 100 % of control | dose: 15.0 mg/kg/injection, schedule: Q01DX015 (ip), vehicle: carboxymethylcellulose (CMC) 102 % of control and 109 % of control | dose: 22.0 mg/kg/injection, schedule: Q01DX001 (ip), vehicle: carboxymethylcellulose (CMC) 118 % of control | dose: 50.0 mg/kg/injection, schedule: Q01DX001 (ip), vehicle: carboxymethylcellulose (CMC) 110 % of control | dose: 100.0 mg/kg/injection, schedule: Q01DX001 (ip), vehicle: carboxymethylcellulose (CMC) 123 % of control | dose: 200.0 mg/kg/injection, schedule: Q01DX001 (ip), vehicle: carboxymethylcellulose (CMC) 89 % of control

O=C(Nc1ccc(N=Nc2ccccc2)cc1)C(F)(F)F
inactive: [6] 102 % of control | [7] 109 % of control | [8] 93 % of control
